How the values were obtained:
Format in all cases: cell-based, human
[1] = tested on: cleaved caspase-3 protein; experiment: Western blot of cleaved caspase-3 in myometrial strips stimulated with LPS
Description: (§1) Myometrial biopsies obtained from women with uncomplicated pregnancies were immediately transferred in sterile Dubelcco's Modified Eagle Medium (DMEM) and washed twice with sterile Phosphate Buffer Saline (PBS). Biopsies were cut into small strips, each being placed in a 24-well plate containing 2 ml of culture medium DMEM, without the use of antibiotics. Strips were then incubated at 37° C. with 5% CO2 for 48 h in order to allow cytokine levels to return to basal values (Fortunato S J, et al. Am J Reprod Immunol 1994; 32: 184-187). […]
(§2) Snap-frozen myometrial tissues were homogenized with Ultra-Turrax in homogenization buffer [10 mM Tris-HCl (pH 7.4), 1 mM EDTA, […] leupeptine, 2 mM Pefabloc]. After an initial centrifugation at 500×g for 15 min at 4° C., total protein supernatant content was determined by the Bradford method with BSA as standard. […] Immunoreactive proteins were detected by chemiluminescence (ECL™ detection reagents, RPN2105, Amersham, USA) and exposure to a X-ray film (Hyperfilm™, Amersham Bioscience, USA). The intensities of the bands were analyzed densitometrically using the NIH Image 1.62 program and normalized with intensity of bands obtained with monoclonal antibody to Glyceraldehyde 3-Phosphate Dehydrogenase (GAPDH) used as protein loading control. Results are expressed as the mean±s.e.m. in Arbitrary Density Unit (A.D.U).

BAX protein = experiment: Western blot of BAX in myometrial strips stimulated with LPS
Description: as §1, §2

BCL2 protein = experiment: Western blot of BCL2 in myometrial strips stimulated with LPS
Description: as §1, §2

caspase-3 transcripts = experiment: Real time quantitative RT-PCR of caspase-3 transcripts in myometrial tissue; conditions: LPS alone 2.08±0.63
Description: (§3) Myometrial biopsies obtained from women with uncomplicated pregnancies were immediately transferred in sterile Dubelcco's Modified Eagle Medium (DMEM) and washed twice with sterile Phosphate Buffer Saline (PBS). Biopsies were cut into small strips, each being placed in a 24-well plate containing 2 ml of culture medium DMEM, without the use of antibiotics. Strips were then incubated at 37° C. with 5% CO2 for 48 h in order to allow cytokine levels to return to basal values (Fortunato S J, et al. Am J Reprod Immunol 1994; 32: 184-187).
In order to reproduce with LPS (Escherichia coli 055:B5) the findings on myometrial samples obtained from women with chorioamnionitis, myometrial strips were incubated with three different concentrations of LPS (50 ng/ml, 1 μg/ml and 10 μg/ml) at three different times (8 h, 24 h, 48 h). In a second set of experiments, in order to assess the role of TNF in LPS-induced apoptosis in myometrial tissue, the strips were incubated with LPS 10 μg/ml for 48 h with or without anti TNF antibodies (0.6 μg/ml) (Human TNF alpha/TNFSF1A antibody, R&D systems Europe, Lille, France, the concentration of the antibody used was chosen based on the manufacturer's recommendations). […]
Total RNA was prepared from 5 myometrial tissues obtained from 5 different women, using Trizol solution (Life Technologies, Groningen, The Netherlands) according to the manufacturer's instructions. […] Real time quantitative PCR analyses were performed using 25 ng of reverse transcribed total RNA with 200 nM of both sense and anti sense primers in a final volume of 25 μl using the SYBR Green PCR jumpstart reagent (Sigma, Saint Louis, Mo., USA) in an iCycler iQ real time detection system instrument (Bio-Rad, Marnes-la-Coquette, France). PCR products were also analyzed on edithium bromide stained agarose gel to ensure that a single amplicon of the expected size was indeed obtained. […]

IL6 = experiment: Cytometric Bead Array, IL6 in supernatants of myometrial strips
Description: as §3
(§4) In order to reproduce with LPS (Escherichia coli 055:B5) the findings on myometrial samples obtained from women with chorioamnionitis, myometrial strips were incubated with three different concentrations of LPS (50 ng/ml, 1 μg/ml and 10 μg/ml) at three different times (8 h, 24 h, 48 h). […]
(§5) Cytokines measurements were determined by Cytometric Bead Array (CBA; Bender MedSystems). Supernatants of 5 myometrial strips were incubated with labeled capture beads and detection reagent for 3 h in the dark at room temperature, and analyzed with a flow cytometer (FACSCalibur; BD Biosciences) by using the respective CBA Analysis software (BD Biosciences) and Bender MedSystems software. Cytokine standards for quantification (pg/mL) as well as the blanks were handled in the same manner as the samples. […]

IL8 = experiment: Cytometric Bead Array, IL8 in supernatants of myometrial strips
Description: as §3, §4, §5

[2] = tissues not stimulated with LPS (data not shown)
[3] = Compound A 10^-7, 10^-6, 10^-5 M with LPS 10 μg/ml 48 h, ANOVA P<0.01, FIG. 4

CCOC(=O)c1ccc([C@H]2CC[C@H](NC[C@H](O)COc3ccc(O)c(NS(C)(=O)=O)c3)CC2)cc1.Cl [Compound A, Ethyl-4-{trans-4-[((2S)-2-hydroxy-3-{4-hydroxy-3[(methylsulfonyl)-amino]phenoxy}propyl)amino]cyclohexyl}benzoate hydrochloride]
antagonism of LPS-induced changes in cleaved caspase-3 expression ([1]; Compound A 10^-7, 10^-6, 10^-5 M with LPS 10 μg/ml 48 h, concentration dependent, ANOVA P<0.001, FIG. 3): significantly antagonize | effect by itself on cleaved caspase-3 expression [1, 2]: no effect | antagonism of LPS-induced BAX protein up-regulation (BAX protein; [3]): antagonized in a concentration dependant manner | effect by itself on BAX expression (BAX protein; [2]): no effect | antagonism of LPS-induced BCL2 protein down-regulation (BCL2 protein; [3]): antagonized in a concentration dependant manner | effect by itself on BCL2 expression (BCL2 protein; [2]): no effect | caspase-3 transcripts, fold increase normalized to GAPDH compared with controls (caspase-3 transcripts; LPS with Compound A 10^-5 M): 0.93±0.41 fold | caspase-3 transcripts, fold increase normalized to GAPDH compared with controls (caspase-3 transcripts; LPS with Compound A 10^-6 M): 0.84±0.53 fold | caspase-3 transcripts, fold increase normalized to GAPDH compared with controls (caspase-3 transcripts; LPS with Compound A 10^-7 M): 1.17±0.81 fold | effect on LPS-induced IL6 (IL6; Compound A with LPS, concentration dependent, not statistically significant, FIG. 5): decreased | effect by itself on IL6 release (IL6; [2]): not effect | effect on LPS-induced IL8 (IL8; Compound A with LPS, concentration dependent, ANOVA P=0.01, FIG. 5): decreased | effect by itself on IL8 release (IL8; [2]): not effect

— patent US9161925B2, “Therapeutic uses of beta-3 adrenergic receptor agonist derivatives in particular to modulate apoptosis” (SANOFI, priority 2007, dated 2015)
